Patent US20260158018A1, “PERFUSATE CONTAINING NICOTINAMIDE FOR INTRAOCULAR SURGERY, METHOD OF PREPARATION AND USE THEREOF” (EYE INSTITUTE OF SHANDONG FIRST MEDICAL UNIVERSITY …, priority 2023, published 2026)

Experiments:
[1] = tested on: mouse CECs; settings: mice treated with high IOP, reported in the literature; cited from earlier work
[2] = tested on: rabbit CECs; experiment: Rabbit lens phacoemulsification model with NAM-containing perfusate; assay type: in vivo, New Zealand white rabbits; settings: for corneal transparency / edema: 2 days after surgery; for corneal transparency / edema / recovery of corneal thickness / protective effect on CECs in phacoemulsification: NAM versus Gln in perfusate; for corneal transparency / edema / recovery of corneal thickness: FIG. 7; for protective effect on CECs in phacoemulsification: conclusion
Protocol: Animals: New Zealand white rabbits (age, 1.5 years; weight, 5-7 kg) were purchased from Jinan Xilingjiao Biological Co., Ltd. New Zealand white rabbits were kept in a pathogen-free environment in the animal house of the Eye Institute of Shandong First Medical University.
Animal model: the pupils were dilated three times with 0.5% compound tropicamide eye drops. Sedation was performed first, and the rabbits were anesthetized according to 20 mg/kg intramuscular injection of xylazine hydrochloride injection and 3% pentobarbital sodium injection (15 mg/kg) intravenously at the ear margin. The right eye of each rabbit was subjected to phacoemulsification for lens removal using the WHITESTAR Signature® Phacoemulsification System (Signature, AMO, USA). The left eye was used as the normal eye. A 3.0-mm clear corneal tunnel incision was made at the position of 11 to 12 o'clock, and continuous curvilinear capsulorhexis was performed in the center of the anterior capsular membrane of the lens, with a torn capsule diameter of approximately 5.0 mm. Phacoemulsification was then performed to suction out the lens contents, including the nucleus of the lens and the residual lens cortex, with the setting of ultrasonication energy of 30-50% and the ultrasonication time of 4-6 min. At the end of the procedure, the New Zealand white rabbits were administered with tobramycin and dexamethasone eye ointment in the conjunctival sac.
Perfusate: balanced salt solution containing 1 mM NAM (refers to compound electrolyte intraocular irrigating solution, Shike®, Shenyang Xingqi Pharmaceutical Co., Ltd.): NAM was added to the balanced salt solution until the concentration of NAM in the perfusate was 1 mM; balanced salt solution containing 2.5 mM NAM: NAM was added to the balanced salt solution until the concentration of NAM in the perfusate was 2.5 mM; balanced salt solution containing 5 mM NAM: NAM was added to the balanced salt solution until the concentration of NAM in the perfusate was 5 mM; balanced salt solution alone as control group: an equal amount of PBS was added to the balanced salt solution.
Immunofluorescence staining: immunofluorescence detection of the expression of functional proteins ZO1 and ATP1A1.
Alizarin Red Staining: gross corneas of New Zealand rabbits were collected and fixed in sterile saline. The cornea was flattened by cutting it into four flaps using ophthalmic microscopic scissors. The corneas were stained with alizarin red staining solution for 2 min, followed by washing the corneas at least three times with sterile saline. Cover slips were put on, changes in the CECs of New Zealand rabbits were observed under a microscope, image acquisition was performed, and all experiments were repeated at least 3 times. Endothelial cell density, coefficient of variation, and hexagonal ratio were determined using alizarin red-stained images of New Zealand rabbit corneas. By using an endothelial microscope by 2 uninformed observers, cell density was normalized to the area of each image in square millimeters. For each image, an area containing at least 60 cells was selected.
Slit lamp photography: changes in corneal transparency in New Zealand rabbits were observed and recorded using a slit lamp.
Corneal thickness test: corneal thickness was analyzed and measured using optical coherence tomography (OCT) to measure central corneal thickness, with no less than three New Zealand rabbits measured at each time point.
Phacoemulsification was performed on New Zealand white rabbits, where NAM-containing intraocular perfusate was used for irrigation, and perfusate of the balanced salt solution alone was used as a control.

[3] = tested on: Human CECs line B4G12; experiment: Cellular assay: B4G12 cell damage induced by phacoemulsification in vitro; assay type: cell-based; settings: 1 mM, 2.5 mM and 5 mM NAM; 1 hour and 24 hours after phacoemulsification; sonication 20 seconds, energy 30%; FIG. 8
Protocol: Preparation for cell culture in vitro: Human CECs line B4G12 was selected for culture, original medium was discarded, 3 mL of PBS buffer was added, 6.0 cm cell culture dish was shaken gently, rinsed twice, and PBS buffer was discarded. 1.0 mL of trypsin was added to completely cover the bottom of the dish, and the dish was placed in the incubator for 5 min. The dish gently shaken, tapped, and observed with a microscope. The adherent cells became suspended round cells, then 1.5 mL of complete medium [each 50 mL of human corneal endothelial cell basal medium (H-SFM, Creative Bioarray, New York, USA) supplemented with 1.5 mL of FBS and 0.5 mL of penicillin-streptomycin solution] was added to the flask on the laminar flow cabinet, and trypsin digestion of cells was stopped. The cells on all parts of the bottom of the flask were gently pipetted using the tip of the pipettor so that the cells became fully in suspension. The cell suspension was transferred to a 15 mL centrifuge tube and subjected to centrifugation at 1200 rpm for 5 min. After the centrifugation, the supernatant was discarded, 3 mL of complete medium was added to the centrifuge tube, and a resulting mixture was gently pipetted to eveness. The cells were allowed to resuspend sufficiently, then inoculated into 48-well cell culture plates at a cell density of 1×10^5 and incubated for 24 hours for subsequent experiments. […]

NC(=O)CC[C@H](N)C(=O)O [Gln, glutamine]
protective effect on CECs during high IOP treatment [1]: protective effect on CECs in mice treated with high IOP
corneal transparency / edema [2]: still edematous
recovery of corneal thickness [2]: recovered more slowly
protective effect on CECs in phacoemulsification [2]: poor protective effect

NC(=O)c1cccnc1 [NAM, nicotinamide]
apoptosis and cell survival of B4G12 cells after phacoemulsification [3]: could inhibit apoptosis induced by phacoemulsification and promote cell survival in a concentration-dependent manner
corneal transparency / edema [2]: transparent
recovery of corneal thickness [2]: recovered quickly
protective effect on CECs in phacoemulsification [2]: has a protective effect on CECs
intraocular pressure (IOP) after phacoemulsification ([2]; within 7 days after surgery, versus control group, FIG. 4): did not cause a pathological increase in IOP within 7 days after surgery
